From the supplement of paper PMC10011410
± gives the standard deviation of the averaged measurements.

Tests used:
U-2 OS [1] = assay: intracellular GSH:GSSG ratio (calculated); higher = more reduced glutathione pool; details: 24 h
Protocol: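 Intracellular glutathione in U-2 OS cells after 24 h compound treatment at 5, 10 and 20 uM (some at 40 and 80 uM). Total glutathione and GSSG were measured with the GSH/GSSG-Glo kit, and the GSH:GSSG ratio was calculated. Mean of five technical replicate plates.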

U-2 OS [2] = assay: relative cell count vs DMSO (cell painting) (fraction of DMSO control); higher = more cells remaining (less cytotoxic); details: 24 h
Procedure, shortened: (§1)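 Cell painting used U-2 OS cells at about 1,500 per well in 384-well plates, treated by pin tool for 24 h at 37 °C, usually at six 2-fold concentrations from 20 μM to 625 nM. Cells were stained with MitoTracker, concanavalin A, phalloidin, wheat germ agglutinin, Hoechst and SYTO 14 and imaged on an Opera Phenix. Features were extracted with CellProfiler and normalized to DMSO cells on the same plate. The activity score is the Mahalanobis distance from DMSO wells; cell count is relative to DMSO wells. Values are means of four replicate plates.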

U-2 OS [3] = assay: cell viability (CellTiter-Glo) relative to DMSO (% of control); higher = more viable; details: 24 h
Protocol: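 Cell viability of U-2 OS cells by CellTiter-Glo after 24 h compound treatment at 5, 10 and 20 uM (some at 40 and 80 uM), measured in parallel with the glutathione assay, as percent of DMSO control. Five technical replicate plates, averaged.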

U-2 OS [4] = assay: total intracellular glutathione (GSH + GSSG) relative to DMSO (% of control); higher = more glutathione; details: 24 h
Protocol: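 Total intracellular glutathione (GSH + GSSG) in U-2 OS cells by GSH/GSSG-Glo after 24 h compound treatment at 5, 10 and 20 uM (some at 40 and 80 uM), as percent of DMSO control. Five technical replicate plates, averaged.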

U-2 OS [5] = assay: cell painting activity score (Mahalanobis distance from DMSO wells); higher = stronger morphological phenotype; details: 24 h
Procedure, shortened: as §1

U-2 OS [6] = assay: AUC of culture confluence over time (live-cell imaging) (AUC (confluence % x time)); higher = more confluent culture (less growth inhibition)
Procedure, shortened: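 Live-cell imaging tracked confluence of U-2 OS cells grown in F-12K medium plus 10% FBS. After seeding at 750 cells per well in 384-well plates, cells received compounds by pin tool 24 h later, mostly at 20, 10 and 5 μM, with 0.2% DMSO. Plates stayed at 37 °C and were imaged every 4 h for up to 60 h. Each value is the area under the confluence-versus-time curve.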

Compound	intracellular GSH:GSSG ratio (U-2 OS [1]; 5 µM)	intracellular GSH:GSSG ratio (U-2 OS [1]; 10 µM)	relative cell count (U-2 OS [2]; 0.625 µM)	relative cell count (U-2 OS [2]; 1.25 µM)	relative cell count (U-2 OS [2]; 2.5 µM)	relative cell count (U-2 OS [2]; 5 µM)	relative cell count (U-2 OS [2]; 10 µM)	relative cell count (U-2 OS [2]; 20 µM)	cell viability (U-2 OS [3]; 5 µM)	cell viability (U-2 OS [3]; 10 µM)	cell viability (U-2 OS [3]; 20 µM)	total intracellular glutathione (U-2 OS [4]; 5 µM)	total intracellular glutathione (U-2 OS [4]; 10 µM)	total intracellular glutathione (U-2 OS [4]; 20 µM)	cell painting activity score (U-2 OS [5]; 0.625 µM)	cell painting activity score (U-2 OS [5]; 1.25 µM)	cell painting activity score (U-2 OS [5]; 2.5 µM)	cell painting activity score (U-2 OS [5]; 5 µM)	cell painting activity score (U-2 OS [5]; 10 µM)	cell painting activity score (U-2 OS [5]; 20 µM)	AUC of culture confluence over time (U-2 OS [6]; 5 µM)	AUC of culture confluence over time (U-2 OS [6]; 10 µM)	AUC of culture confluence over time (U-2 OS [6]; 20 µM)	intracellular GSH:GSSG ratio (U-2 OS [1]; 20 µM)	intracellular GSH:GSSG ratio (U-2 OS [1]; 40 µM)	intracellular GSH:GSSG ratio (U-2 OS [1]; 80 µM)	relative cell count (U-2 OS [2]; 40 µM)	relative cell count (U-2 OS [2]; 80 µM)	cell viability (U-2 OS [3]; 40 µM)	cell viability (U-2 OS [3]; 80 µM)	total intracellular glutathione (U-2 OS [4]; 40 µM)	total intracellular glutathione (U-2 OS [4]; 80 µM)	cell painting activity score (U-2 OS [5]; 40 µM)	cell painting activity score (U-2 OS [5]; 80 µM)	AUC of culture confluence over time (U-2 OS [6]; 40 µM)	AUC of culture confluence over time (U-2 OS [6]; 80 µM)	AUC of culture confluence over time (U-2 OS [6]; 0.625 µM)	AUC of culture confluence over time (U-2 OS [6]; 1.25 µM)	AUC of culture confluence over time (U-2 OS [6]; 2.5 µM)
COC(=O)[C@]1(C)CC[C@]2(C)CC[C@]3(C)C4=CC=C5C(=CC(=O)C(O)=C5C)[C@]4(C)CC[C@@]3(C)[C@@H]2C1	0.695	0.536	0.0681	0.0621	0.0626	0.0644	0.0539	0.117	5.12 ± 0.81	1.29 ± 0.58	0.733 ± 0.056	9.07 ± 0.87	4.42 ± 1.3	3.06 ± 0.32	24.2	33.5	32.8	33.4	33.5	27.7	11.3	11.9	14.2	–	–	–	–	–	–	–	–	–	–	–	–	–	–	–	–
O=C(O[C@@H]1Cc2c(O)cc(O)cc2O[C@@H]1c1cc(O)c(O)c(O)c1)c1cc(O)c(O)c(O)c1	24.8	18.8	0.966	1	0.981	0.96	0.989	0.897	98.8 ± 3.2	97.6 ± 4.7	69.1 ± 19	96 ± 2.7	102 ± 5.6	63.7 ± 3.8	3.76	4.88	4.25	4.82	5.68	10.4	48.7	49.6	48.6	11.4	14	12	0.843	0.466	83 ± 14	43.2 ± 2.7	77.8 ± 5.7	53.9 ± 4.4	4.51	14.8	41.4	28.3	–	–	–
CCCCCOc1ccc(/C=C\c2cccc(O)c2C(=O)O)cc1	21.5	17.6	0.986	0.944	0.908	0.973	1.05	0.952	106 ± 3.3	97.9 ± 5.9	106 ± 6.7	75.1 ± 6.4	69.9 ± 7	81.1 ± 8.2	5.46	4.75	3.23	3.6	4.31	4.17	38.6	40.9	46.8	21.8	14.2	35.3	0.501	0.24	104 ± 5.3	99 ± 5.7	78.4 ± 6.4	76.9 ± 9.8	6.92	17.3	34.2	44.5	–	–	–
C=CC(=O)Nc1cc2c(Nc3ccc(F)c(Cl)c3)ncnc2cc1OCCCN1CCOCC1	7.51	1.96	0.407	0.133	0.0844	0.0662	0.0483	0.019	57.1 ± 4.1	6.54 ± 1.9	4.85 ± 1.7	69.5 ± 4.6	11.2 ± 1.2	4.36 ± 0.66	15.6	19.4	27.2	25.4	25.3	26.9	19.1	13.7	9.96	0.352	–	–	–	–	–	–	–	–	–	–	–	–	–	–	–
COC(=O)Nc1nc2ccc(C(=O)c3cccs3)cc2[nH]1	3.33	2.36	0.272 ± 0.056	0.265 ± 0.032	0.243 ± 0.033	0.232 ± 0.034	0.222 ± 0.035	0.211 ± 0.036	54.8 ± 7	47.5 ± 5.7	52.3 ± 9.2	53.1 ± 6.4	50.2 ± 4.2	51.4 ± 6	19.6 ± 2.7	18.4 ± 2.2	21.5 ± 2.2	22.3 ± 1.8	22.7 ± 1.8	23.1 ± 1.4	20.2	18.8	24.1	2.95	–	–	–	–	–	–	–	–	–	–	–	–	20.9	19.1	21.5
CCN1CCN(c2ccc3nsnc3c2[N+](=O)[O-])CC1	16.2	18.8	0.938	0.946	0.945	0.908	0.929	0.955	105 ± 5.4	103 ± 4.1	106 ± 5.4	100 ± 6.2	98.1 ± 3.7	91.3 ± 3.3	3.95	4.39	4.69	6.21	4.95	5.29	45	46.2	42.9	13.3	–	–	–	–	–	–	–	–	–	–	–	–	–	–	–
O=C(CCCCCCC(=O)Nc1ccccc1)NO	8.04	6.39	1.01	0.936	0.838	0.776	0.491	0.438	55.2 ± 5.3	49.6 ± 3	44 ± 2	60.5 ± 3.5	47.6 ± 4.1	39.5 ± 5.2	9.26	11.1	12	12	17.1	14.8	20.3	17.9	18.6	4.82	–	–	–	–	–	–	–	–	–	–	–	–	–	–	–
